The values below come from patent US20260001875A1, “AMINOPYRIMIDINYL DERIVATIVES FOR THE TREATMENT OF PARKINSON'S DISEASE” (UNIVERSITY OF DUNDEE, priority 2022, published 2026).

Like-named read-outs stand apart in the source and are kept apart here.

One may read the EC50 as the concentration that produces a half-maximal response. As a reminder, the IC50 is the midpoint of a concentration-inhibition curve.

Assay [1] has as its system LRRK2 pSer935. Description: LRRK2 Ser935 dephosphorylation (immunoblot) in LRRK2^G2019S MEFs. The assay is classed as cell-based, mouse. To be noted: for EC50: Mus musculus, dose response; for T1/2 GS-pSer935-LRRK2: LRRK2^G2019S MEFs. How it is done:
(§1) Western blot degradation assays for the LRRK2 protacs were performed with WT and PD-associated LRRK2 [G2019S] mouse embryonic fibroblasts (MEFs). The second-generation PROTACs were tested in parallel with the first generation PROTACs SD75, SD82, and SD100. The compounds were tested at 33 nM or […] concentrations for 4 hours or 24 hours, running two biological replicates per condition and achieving quantifications representative of both replicates. Analysis by quantitative immunoblotting was performed with readouts of the total LRRK2 (antibody recognizes epitope in C-terminus of protein), Rab10 pThr73 (physiological substrate) and LRRK2 pSer935 (biomarker phosphorylation site).
(§2) Primary MEFs were generated as described in a previous study (Wiggin et al., Mol. Cell Biol. 2002 April; 22(8):2871-81.). Briefly, the uterine horn was collected from adult female mice at day E12.5 and transferred to a 10 cm tissue culture dish containing cold PBS. Two forceps were used to tear the yolk sacs to isolate each embryo. Forceps were cleaned thoroughly with 70% ethanol between each embryo isolation. The embryos were culled, and a tissue piece was collected in a PCR tube for genotyping. The red tissue of the embryo, which grows to become the heart and liver, was removed. The remainder of the embryo was minced with a scalpel blade and incubated with 7.5 ml trypsin-EDTA solution for 10 minutes in a 37° C. tissue culture CO2 incubator. The dish was removed from the incubator and checked under a light microscope for single cells. 7.5 ml complete media was added to the trypsinised cells, and the cell suspension was transferred to a 15 ml Falcon tube, centrifuged at 1200 rpm for 5 minutes at room temperature. The trypsin was aspirated, the cell pellet was resuspended in 5 ml fresh complete media, and the cell suspension was plated in a 60 mm tissue culture dish and incubated in a 37° C., 5% CO2 tissue culture incubator. The MEFs at this stage were considered as passage 0 and were passaged and expanded for experimental use once the genotype was confirmed by allelic sequencing and immunoblotting. MEFs were cultured in Dulbecco's modified Eagle medium (DMEM) containing 10% (v/v) fetal bovine serum (FBS), 2 mM L-glutamine, 100 U/ml penicillin, and 100 μg/ml streptomycin supplemented with 1× non-essential amino acids and 1 mM sodium pyruvate.
(§3) Culturing and passaging of adherent cell lines were carried out using aseptic technique in CL1 or CL2 (for PBMC isolation) biological safety cabinets. All cells were incubated in a 37° C. incubator with 5% CO2. Cell lines were regularly tested for mycoplasma contamination. For western blot assay, the cells were seeded in 6-well plates. After treating with testing compounds at indicated concentrations and time period, the media was removed and the cells were washed with PBS and lysed in 100 μl ice-cold complete lysis buffer containing 50 mM Tris-HCl pH 7.4, 1 mM EGTA, 10 mM 2-glycerophosphate, 50 mM sodium fluoride, 5 mM sodium pyrophosphate, 270 mM sucrose, supplemented with 1 μg/ml microcystin-LR, 1 mM sodium orthovanadate, complete EDTA-free protease inhibitor cocktail (Roche) and 1% (v/v) Triton X-100. The cells were immediately placed on ice and were scraped and collected into 1.5 ml Eppendorf tubes. Cell lysates were incubated on ice for 10 minutes prior to centrifugation at 15,000 g at 4° C. for 15 minutes. The cell pellet was discarded, and supernatant was collected for analysis by quantitative immunoblotting. For long term storage, the supernatant was flash frozen and stored at −80° C. Protein concentrations of cell lysates were determined using the Bradford assay.
(§4) Cell lysates containing a quarter of a volume of 4× NuPAGE LDS sample buffer (NP0007) supplemented with 5% β-mercaptoethanol, were heated at 95° C. for 5 minutes. […]
For orientation: A western blot detects proteins with antibodies after separation by electrophoresis.

Assay [2] deals with LRRK2 pSer935. As to the kind of experiment: LRRK2 Ser935 dephosphorylation (immunoblot) in WT MEFs. The assay is classed as cell-based, mouse. To be noted: for EC50: Mus musculus, dose response, read-out: WT MEFs pSer935 LRRK2-dephosphrylation EC50; for T1/2 WT-pSer935-LRRK2: WT MEFs. How it is done: as §1, §2, §3, §4
Assay [3] concerns Rab10 pThr73. Description: Rab10 Thr73 dephosphorylation (immunoblot) in WT MEFs. The assay is classed as cell-based, mouse. To be noted: for inhibition at 0.033 µM / inhibition at 1 µM: read-out: pRab10 inhibited in WT MEFs; for EC50: dose response, read-out: WT MEFs pRab10-dephosphrylation EC50. The method, boiled down:
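Wild-type mouse embryonic fibroblasts in 6-well plates were treated with LRRK2 PROTACs, with two biological replicates per condition. Cells were washed in PBS and lysed on ice in buffer containing phosphatase and protease inhibitors plus 1% Triton X-100, then clarified at 15,000 g. Rab10 Thr73 phosphorylation was measured by quantitative immunoblotting of 15 to 20 μg protein on 4-12% Bis-Tris gels.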

Assay [4] addresses LRRK2 (Homo sapiens, UniProt Q5S007). Description: NanoBRET-based ternary binding and cooperativity assay. The arrangement: host or cells: HEK293 (digitonin-permeabilized). To be noted: permeabilized HEK293 cells, without VCB; read-out: IC50 LRRK2 engagement in the absence of VCB. How it is done:
The HEK293 cells were transfected with LRRK2-NanoLuc fusion vector (Promega, NV3401) following Promega's protocol and seeded into white 384-well plate (Corning3570) at a density of 6000 cells/well. The cells were then treated with 50 μg/mL of digitonin, 125 nM of LRRK2 tracer, testing compounds at decreasing concentrations (11 concentrations with 2-fold serial dilution starting from 10 μM) or testing compounds and VCB mix (11 concentrations with 2-fold serial dilution starting from 10 μM compound for the compound. The first 6 concentrations of VCB start from 32 μM with 2-fold dilution, the last 5 concentrations of VCB keep at 1 μM), and NanoBRET NanoGlo Substrate (Promega) at concentration recommended by the manufacturer's protocol. In the maximum signal control samples (DMSO control), DMSO was added instead of testing compounds. In the minimum signal control samples (no tracer control), DMSO and LRRK2 tracer dilution buffer were used to replace testing compounds and LRRK2 tracer separately. The filtered luminescence was measured within 10 min following addition of the substrate on a PHERAstar (BMG LABTECH) plate reader equipped with a 450-nm bandpass filter (donor) and a 600-nm long pass filter (acceptor). The fractional occupancy was calculated according to the equation: fractional occupancy=(mBRETtesting compound−mBRETno tracer control)/(mBRETDMSO control−mBRETno tracer control).
Background: Bioluminescence resonance energy transfer reports proximity on the nanometre scale.

The mark [5] stands for this setting: Mus musculus, 33 nM/4 h treatment.
Where [6] appears, read: Mus musculus, 1 μM/4 h treatment.
Setting [7] is: Mus musculus, 1 μM/24 h treatment.
The mark [8] stands for this setting: Mus musculus, 33 nM/24 h treatment.
The mark [9] stands for this setting: Mus musculus, time course at 300 nM, WT MEFs.

Sequence of LRRK2 (Q5S007 whole entry, the tested form may be a part): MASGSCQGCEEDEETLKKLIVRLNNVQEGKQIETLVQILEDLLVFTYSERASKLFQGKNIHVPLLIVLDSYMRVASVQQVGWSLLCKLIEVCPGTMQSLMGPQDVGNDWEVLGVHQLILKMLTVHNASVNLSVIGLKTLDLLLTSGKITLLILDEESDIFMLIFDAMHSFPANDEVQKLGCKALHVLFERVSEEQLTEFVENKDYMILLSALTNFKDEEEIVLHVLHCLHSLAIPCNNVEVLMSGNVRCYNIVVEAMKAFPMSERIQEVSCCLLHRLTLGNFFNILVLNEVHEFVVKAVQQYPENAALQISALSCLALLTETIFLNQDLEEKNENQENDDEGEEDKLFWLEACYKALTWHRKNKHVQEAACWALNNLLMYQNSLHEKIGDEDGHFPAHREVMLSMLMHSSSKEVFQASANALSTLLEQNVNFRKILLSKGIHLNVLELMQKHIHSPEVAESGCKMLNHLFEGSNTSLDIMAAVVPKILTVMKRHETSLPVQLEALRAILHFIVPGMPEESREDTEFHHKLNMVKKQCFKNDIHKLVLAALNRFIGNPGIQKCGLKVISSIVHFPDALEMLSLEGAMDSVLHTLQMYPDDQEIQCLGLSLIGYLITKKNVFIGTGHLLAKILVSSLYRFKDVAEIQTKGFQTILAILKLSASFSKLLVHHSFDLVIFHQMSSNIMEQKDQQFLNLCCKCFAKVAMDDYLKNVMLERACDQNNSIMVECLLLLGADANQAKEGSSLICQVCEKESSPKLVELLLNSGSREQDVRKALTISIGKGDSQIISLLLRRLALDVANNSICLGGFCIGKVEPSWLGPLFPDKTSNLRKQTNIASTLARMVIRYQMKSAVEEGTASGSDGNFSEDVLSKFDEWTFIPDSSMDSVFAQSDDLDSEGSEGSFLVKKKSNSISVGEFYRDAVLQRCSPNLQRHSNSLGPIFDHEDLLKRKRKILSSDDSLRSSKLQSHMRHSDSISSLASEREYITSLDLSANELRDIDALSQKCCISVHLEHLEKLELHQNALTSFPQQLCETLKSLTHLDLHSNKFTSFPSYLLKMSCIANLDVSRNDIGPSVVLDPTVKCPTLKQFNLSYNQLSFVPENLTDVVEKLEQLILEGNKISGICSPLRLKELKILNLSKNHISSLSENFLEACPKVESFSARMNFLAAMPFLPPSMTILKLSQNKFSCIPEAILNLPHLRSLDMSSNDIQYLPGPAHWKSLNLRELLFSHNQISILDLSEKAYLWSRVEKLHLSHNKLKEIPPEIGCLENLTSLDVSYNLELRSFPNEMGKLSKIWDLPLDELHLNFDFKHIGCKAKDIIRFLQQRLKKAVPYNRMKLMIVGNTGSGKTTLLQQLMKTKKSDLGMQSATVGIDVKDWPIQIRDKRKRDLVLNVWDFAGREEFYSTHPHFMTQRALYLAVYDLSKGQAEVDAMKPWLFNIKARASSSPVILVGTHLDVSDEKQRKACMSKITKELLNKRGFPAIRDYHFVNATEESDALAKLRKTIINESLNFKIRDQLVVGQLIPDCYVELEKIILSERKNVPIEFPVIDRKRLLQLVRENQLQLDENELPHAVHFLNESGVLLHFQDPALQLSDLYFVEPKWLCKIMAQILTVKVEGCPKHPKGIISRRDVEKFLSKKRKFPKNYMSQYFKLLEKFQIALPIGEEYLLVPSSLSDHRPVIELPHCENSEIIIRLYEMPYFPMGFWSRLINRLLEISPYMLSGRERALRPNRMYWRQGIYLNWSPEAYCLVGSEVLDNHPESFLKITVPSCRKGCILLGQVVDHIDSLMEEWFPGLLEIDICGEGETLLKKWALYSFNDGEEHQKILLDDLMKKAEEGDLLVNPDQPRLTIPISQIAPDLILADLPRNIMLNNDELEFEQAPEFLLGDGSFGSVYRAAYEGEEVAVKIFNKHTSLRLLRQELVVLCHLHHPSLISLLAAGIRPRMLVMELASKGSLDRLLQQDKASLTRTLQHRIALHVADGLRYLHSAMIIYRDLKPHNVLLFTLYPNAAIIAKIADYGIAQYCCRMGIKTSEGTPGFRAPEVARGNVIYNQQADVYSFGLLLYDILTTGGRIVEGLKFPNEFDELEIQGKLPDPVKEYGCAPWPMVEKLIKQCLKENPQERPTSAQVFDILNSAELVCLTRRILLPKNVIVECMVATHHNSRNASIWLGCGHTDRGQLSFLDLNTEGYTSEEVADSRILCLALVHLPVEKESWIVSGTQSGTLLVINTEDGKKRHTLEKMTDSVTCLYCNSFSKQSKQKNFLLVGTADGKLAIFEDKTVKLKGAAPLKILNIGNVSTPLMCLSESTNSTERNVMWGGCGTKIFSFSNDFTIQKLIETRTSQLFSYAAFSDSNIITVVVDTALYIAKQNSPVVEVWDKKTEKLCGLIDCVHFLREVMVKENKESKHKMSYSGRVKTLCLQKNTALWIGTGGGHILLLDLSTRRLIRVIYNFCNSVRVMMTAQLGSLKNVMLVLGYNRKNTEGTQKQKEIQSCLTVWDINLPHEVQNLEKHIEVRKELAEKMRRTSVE

In the case of `CNc1nc(Nc2ccc(C(=O)N3CCN(CCOCCOCCSC(C)(C)[C@H](NC(=O)C4(F)CC4)C(=O)N4C[C@H](O)C[C@H]4C(=O)NCc4ccc(-c5scnc5C)cc4)CC3)cc2OC)ncc1Cl` [SD75, (2S,4R)-1-((R)-3-((2-(2-(2-(4-(4-((5-chloro-4-(methylamino)pyrimidin-2-yl)amino)-3-methoxybenzoyl)piperazin-1-yl)ethoxy)ethoxy)ethyl)thio)-2-(1-fluorocyclopropane-1-carboxamido)-3-methylbutanoyl)-4-hydroxy-N-(4-(4-methylthiazol-5-yl)benzyl)pyrrolidine-2-carboxamide], the EC50 is 279 nM in assay [1] (24 h treatment), 745 nM in assay [2] (24 h treatment) and 2270 nM in assay [3] (24 h treatment). The “T1/2 GS-pSer935-LRRK2” value in assay [1] (time course at 1000 nM) is on record as 1.4 h. For the same compound, the “Selectivity Index (pSer935-LRRK2 dephosphorylation, WT vs G2019S MEFs)” value in assay [2] (24 h) was determined as 2.7. Besides, the “T1/2 WT-pSer935-LRRK2” value in assay [2] (time course at 1000 nM) is 3.6 h. The “Selectivity Index (pRab10 dephosphorylation, WT vs G2019S MEFs)” value in assay [3] (24 h) was 6.0. In addition, in assay [3] (setting [5]), the inhibition at 0.033 µM fell in the range of 0 to 25%. The inhibition at 1 µM in assay [3] (setting [6]) lay within 18 to 90%; in assay [3] (setting [7]) it was 30 to 90%. Besides, the Dmax at 1 µM in assay [3] (Mus musculus, time course at 1000 nM, WT MEFs) was 41%. In assay [3] (time course at 1000 nM, WT MEFs), the “T1/2 of Rab10 dephosphorylation (WT)” value is 6.7 h. Also, the IC50 in assay [4] came to 1100 nM.
For the compound `CNc1nc(Nc2ccc(C(=O)N3CCN(C[C@H]4CC[C@H](CSC(C)(C)[C@H](NC(=O)C5(F)CC5)C(=O)N5C[C@H](O)CC5C(=O)NCc5ccc(-c6scnc6C)cc5)CC4)CC3)cc2OC)ncc1Cl` (stereo partly drawn) [XL01126, (2S,4R)-1-((R)-3-((((1R,4R)-4-((4-(4-((5-chloro-4-(methylamino)pyrimidin-2-yl)amino)-3-methoxybenzoyl)piperazin-1-yl)methyl)cyclohexyl)methyl)thio)-2-(1-fluorocyclopropane-1-carboxamido)-3-methylbutanoyl)-4-hydroxy-N-(4-(4-methylthiazol-5-yl)benzyl)pyrrolidine-2-carboxamide], the EC50 in assay [1] (4 h treatment) was determined as 9 nM; in assay [2] (4 h treatment) it was 18 nM. In assay [1] (time course at 300 nM), the “T1/2 GS-pSer935-LRRK2” value was 0.3 h. Also, in assay [2] (time course at 300 nM), the “T1/2 WT-pSer935-LRRK2” value came to 0.6 h. Besides, the inhibition at 0.033 µM in assay [3] (setting [8]) is 0 to 60%. In assay [3] (setting [9]), this compound registered a Dmax at 0.3 µM of 84%. In addition, the IC50 in assay [4] is 2000 nM.
For `CNc1nc(Nc2ccc(C(=O)N3CCN(C[C@H]4CC[C@@H](CSC(C)(C)[C@H](NC(=O)C5(F)CC5)C(=O)N5C[C@H](O)CC5C(=O)NCc5ccc(-c6scnc6C)cc5)CC4)CC3)cc2OC)ncc1Cl` (some centres unmarked) [XL01134], the EC50 in assay [1] (4 h treatment) was determined as 5 nM; in assay [2] (4 h treatment), 35 nM; in assay [3] (Mus musculus, 4 h treatment), 74 nM. Besides, the “T1/2 GS-pSer935-LRRK2” value in assay [1] (time course at 300 nM) worked out at 0.3 h. Besides, in assay [2] (time course at 300 nM), the “T1/2 WT-pSer935-LRRK2” value amounted to 0.7 h. Also, the results for the inhibition at 0.033 µM in assay [3] (setting [5]) and in assay [3] (setting [8]) were 0 to 40% and 0 to 60%, respectively. Besides, the values for the inhibition at 1 µM in assay [3] (setting [6]) and in assay [3] (setting [7]) were 10 to 95% and 30 to 100%, respectively. In assay [3] (setting [9]), the Dmax at 0.3 µM came out at 68%. Besides, in assay [3] (time course at 300 nM, WT MEFs), the “T1/2 of Rab10 dephosphorylation (WT)” value is 2.1 h. Also, the IC50 in assay [4] turned out to be 1100 nM.
